The text below walks through data of patent US20200038641A1, “DRUG DELIVERY DEVICE WITH REMOVABLE PODS AND RELATED PODS, METHODS AND SYSTEMS” (priority 2017, published 2020).

Each structure is given as a SMILES string. Values after ≈ are worked out from the molar mass of the structure shown. Read-outs that look alike come from different tables or passages of the source.

For series [1] the following is noted: women, after 7 days of IVR use.
Excerpt: The trial consisted of an open-label, crossover design where six participants sequentially used a TDF pod-IVR for seven days followed by a TDF-FTC pod-IVR, with a washout period of at least 14 days between each treatment period. Women who were clinically deemed eligible returned to the clinic for IVR insertion visit (Visit 1, TDF IVR; Visit 5, TDF-FTC IVR) after cessation of menses. Women returned for Visit 2 (TDF IVR) or Visit 6 (TDF-FTC IVR) on Day 2 (±1 d) after IVR insertion and for Visit 3 (TDF IVR) or Visit 7 (TDF-FTC IVR) on Day 7 (±1 d) when the IVRs were removed. At Visit 3/7, vaginal biopsies were obtained, and the IVRs were collected. Tissue samples were ultimately reported as ng/mg or fmol/mg, respectively, following normalization to net biopsy or Dacron swab weight.
For series [2] the following is noted: cited from earlier work.
The conditions of series [3]: sheep, in vivo. How it is done:
FIG. 15 illustrates a graph of cervicovaginal lavage concentration (median+SD) of estonogestrel (1510) and ethiny estradiol (1505) delivered simultaneously via combination pod IVRs over 28 days in sheep (n=3). Inverted triangles: estonogestrel; Diamonds: ethiny estradiol.
FIG. 15 illustrates a graph of ETG-EE release: ETG (1510); EE (1505). The pod-in-rings for this example delivered etonogestrel (ETG) and […]. The silicone pod IVRs contained two pods of EE at 16 mg API per pod (32 mg drug per ring) and ETG at 10 mg API per pod (20 mg drug per ring). Median ETG CVL levels (13±6.9 nM) were 8 times higher than the corresponding […] levels (1.6±1.2 nM), in agreement with the relative daily release rates of ETG and EE from the NuvaRing® (120 μg day^−1 and 15 μg day^−1, respectively). Plasma levels were not measured, the preliminary results should imply a match for in vivo and in vitro release compared to Nuvaring®.

The conditions of series [4]: systemic delivery; cited from earlier work.
Another series relates to HSV. As to the kind of experiment: Inhibition of HSV infection by acyclovir, dose-response curve. In kind it is cell-based. Conditions: drug added at the time of HSV challenge and in the overlay medium; read-out: concentration of acyclovir that inhibits infection by 50% (IC50). On the procedure:
The concentration of acyclovir that inhibits infection by 50% (IC50) when drug was added at the time of HSV challenge and in the overlay medium was ˜700 ng/mL.
In FIG. 16, panel A (1605), the percentage inhibition of HSV infection was determined in the presence of increasing concentrations of acyclovir (ACV). In panel B (1610) the percentage inhibition of HSV infection was determined in the presence of the indicated CVL sample or control fluid. Results are means from duplicate wells and each participant is represented by a different symbol (1615); the horizontal lines (1620) indicate the medians for the groups. In panel C (1625), the relationship between drug levels and percentage inhibition was determined by the Spearman correlation coefficient. Filled circles (1630) represent CVL samples obtained 24 h after oral VCV dosing, and open circles (1635) are CVL samples obtained 7 days after ring insertion.

The conditions of series [5]: beyond 190° C.; cited from earlier work.

Consider `CC(Cn1cnc2c(N)ncnc21)OCP(=O)(O)OP(=O)(O)OP(=O)(O)O` (stereo in doubt) [TFV-DP, Tenofovir diphosphate], for which the “vaginal biopsy homogenate tissue levels” value in series [1] was “high enough for PrEP action”.

For `C#C[C@]1(O)CC[C@H]2[C@@H]3CCc4cc(O)ccc4[C@H]3CC[C@@]21C` [EE, Ethinyl Estradiol], in series [2], the solubility in water result was “highly hydrophobic”.

Regarding `C#C[C@]1(O)CC[C@H]2[C@@H]3CCC4=CC(=O)CC[C@@H]4[C@H]3C(=C)C[C@@]21CC` [ETG, Etonogestrel], in series [3], the “ETG CVL levels relative to estradiol (E2) levels” value turned out to be 8 times. For the same molecule, the solubility in water result in series [2] is recorded as “highly hydrophobic”.

For the molecule `Nc1nc(=O)n([C@@H]2CS[C@H](CO)O2)cc1F` [FTC, Emtricitabine], the “vaginal biopsy homogenate tissue levels” value in series [1] is recorded as “high enough for PrEP action”.

As for `Cc1nc(N(C)C(=O)Cc2ccc(-c3ccccn3)cc2)sc1S(N)(=O)=O` [Pritelivir], the solubility in water result in series [2] is reported as “insoluble in water”; in series [2] (listed as pritelivir) it was “low solubility”. For the same molecule, the “toxicity when delivered systemically” value in series [4] is recorded as “significant toxicity”.

Turning to `Nc1nc2c(ncn2COCCO)c(=O)[nH]1` [acyclovir], in the series on HSV, the IC50 is roughly 0.7 µg/mL (≈ 3.11 µM). The solubility in water result in series [2] is reported as “extremely water soluble”. In addition, the thermal stability entry in series [5] is “higher thermal stability even beyond 190 °C”.

For the molecule `CCNC(=O)[C@@H]1CCCN1C(=O)[C@H](CCCNC(=N)N)NC(=O)[C@H](CC(C)C)NC(=O)[C@@H](CC(C)C)NC(=O)[C@H](Cc1ccc(O)cc1)NC(=O)[C@H](CO)NC(=O)[C@H](Cc1c[nH]c2ccccc12)NC(=O)[C@H](Cc1c[nH]cn1)NC(=O)[C@@H]1CCC(=O)N1` [leuprolide], the thermal stability entry in series [5] was “not heat-stable beyond 190 °C”.

On to `C[C@@H](O)[C@@H]1NC(=O)[C@H](CCCCN)NC(=O)[C@@H](Cc2c[nH]c3ccccc23)NC(=O)[C@H](Cc2ccccc2)NC(=O)[C@@H](NC(=O)[C@H](N)Cc2ccccc2)CSSC[C@@H](C(=O)N[C@H](CO)[C@@H](C)O)NC1=O` [octreotide], for which the solubility in water result in series [2] is “very soluble”.
